In article PMC7156458, “Synthetic biology based construction of biological activity-related library of fungal decalin-containing diterpenoid pyrones” (Nature Communications, 2020):
Values joined by “and” are separate entries in the source; they are usually repeats but may differ in a detail not shown here. Equal values may be shown once. “Also recorded” adds a separate entry of the source.

Columns and labels:
MCF-7 cells = assay: mammosphere formation assay; format: cell-based, human; conditions: MCF-7, 5 μM; for MFE (%) ave / MFE (control = 1) ave / MFE (%): 7 days; for MFE (%) ave: mean of 3, control 0.87; for MFE (control = 1) ave: relative to control = 1; for MFE (%): single replicates
Protocol: (§1) We also evaluated antiproliferative activity against cancer stem cells (CSCs), which are a small sub-population in tumour bulk identified in most cancer cells and clinical samples[52]. CSCs have been a major problem in cancer therapy because they are responsible for recurrence, metastasis and drug resistance to chemotherapeutic agents that affect proliferative cells[53]–[56]. Anti-CSC activity was evaluated by the inhibition of sphere-forming ability, a well-studied method to enrich the CSC-like population, and selective cytotoxicity against one of the most reliable CSC markers, aldehyde dehydrogenase (ALDH)-positive cells. […] Low-toxicity 16 was also added as a negative control. […] We next evaluated the three DDPs that inhibited mammosphere formations against ALDH-positive cells, a functional marker for breast CSCs. MCF-7 cells were treated with 1 μM of 11, 12 or 22, and the ALDH-positive cell population was analysed by using a fluorescence activated cell sorter (Supplementary Fig. 46b). […] Thus, for the first time, we successfully found DDPs with potent antiproliferative effects on the CSC-like population in MCF-7 cells, which may lead to new anti-CSC drugs.
(§2) Fig. 5 DDPs show anti-CSC activity in breast cancer cell line MCF-7. a Effect of DDPs on mammosphere formation. After the cells were cultured in the presence of 5 μM DDPs for 7 days, the number of mammospheres was microscopically counted and the percentage of mammosphere-forming cells was determined as mammosphere-forming efficiency (MFE; %). Data represent mean ± s.d. from three independent replicate experiments. P-values were calculated by a two-sided unpaired Student’s t-test, compared with control. b Micrographs show representative images of mammosphere formation from three independent replicate experiments using compound 11, 12, 16, 22. The scale bar, […]. c Effect of DDPs (1 μM, 3 days) on ALDH-positive cells in MCF-7 cells. Data represent mean ± s.d. from three independent replicate experiments. P-values were calculated by a two-sided unpaired Student’s t-test, compared with control. d Dose-dependent effect of compound 12 on ALDH-positive cells in MCF-7 cells. Data represent mean ± s.d. from three independent replicate experiments. P-values were calculated by a two-sided unpaired Student’s t-test. Source data underlying Fig. 5a, c, d are provided in a Source Data file.

[1] = tested on: ALDH-positive cells in MCF-7 cells; assay: ALDH-positive cell population (ALDEFLUOR, flow cytometry); format: cell-based, human; conditions: for ALDH (+) Cell number (10^4 cells) ave: 0 µM 1.61; for ALDH (-) Cell number (10^4 cells) ave: 0 µM 133.39; for ALDH (+) Cell number ave (fold) / ALDH (-) Cell number ave (fold): 0 µM = 1; for ALDH (+) Cell number (10^4 cells) / ALDH (-) Cell number (10^4 cells) / ALDH-positive cells (%): single replicates; for population of ALDH-positive cells / ALDH-positive cells ave (fold) / ALDH-positive cells ave / ALDH-positive cells (%): MCF-7, 1 μM; for ALDH-positive cells ave (fold) / ALDH-positive cells ave / ALDH-positive cells (%): 3 days; for ALDH-positive cells ave (fold): control = 1; for ALDH-positive cells ave: mean of 3, control 1.4
Protocol: as §1, §2
!" ' ' '! !" ' ' '! !" ' ' '!!" ' ' '!!" ' ' '!!" ' ' '!!" ' ' '!!" ' ' '! !" ' ' '! !" ' ' '! !" ' ' '! !"#$ ( % ) * '! '' '# '+ '$ '( '% […]
Main population Single cells Single cells
(negative control) Without DEAB […]
P-values are calculated using a two-sided unpaired Student’s t-test; * p < 0.05, ** p < 0.01, compared with control. b, Gating strategy of flow cytometry analysis for detecting ALDH-positive cells. All samples were analyzed by sequential gating including main population (G1), single cells (G2, G3). Negative control with DEAB was used to establish G4 (ALDH-negative cells) and G5 (ALDH-positive cells). […]
Policy information about cell lines […]
were distributed from National Cancer Institute (Frederick, MD). HT-29, MCF-7, DU-145 and PC-3 were purchased from […]

Aβ42 = Aβ42 (Homo sapiens, UniProt P05067); assay: LC/Q Tof-MS detection of Aβ42 adducts; format: binding; conditions: 1 h incubation at room temperature
Protocol: To further analyse the inhibitory mechanism, we subjected a mixture of Aβ42 and 21 after 1 h of incubation at room temperature to liquid chromatography/quadrupole time-of-flight mass spectrometry (LC/Q Tof-MS). […] To identify the specific amino acids involved in the interaction of 21 with the Aβ monomer, we performed LC–MS/MS analysis with collision-induced dissociation (CID) using E22P, M35ox-Aβ9-35 as a toxic conformer surrogate[66],[67]. Based on a large number of fragmented b ions and y ions, Lys16 in Aβ42 ([…]) seemed to be one of the target amino acid residues of 21 (Supplementary Fig. 50).
Device; UPLC H-class with Xevo G2-S Qtof (Waters) 3.44e7 […]
in 50% CH3CN containing 0.01%NH4OH, incubated for 1 h at 23 °C […]
Capillary voltage; 3.0 kv 16.07
WT-A!42+ compound 21 1: TOF MS ES+
ْMeasurement conditionٓ 2.25e7
Device; UPLC H-class with Xevo G2-S Qtof (Waters)
Capillary voltage; 3.0 kv
WT-A!42 + compound 21 Mass spectrum […]
Supplementary Fig. 48. Comparison of LC-MS data, a, compound 20 was incubated with wt-Aβ42 and analyzed by LC-MS, whereas no peak originated from their adducts was observed. b, compound 21 was incubated with Aβ42 and analyzed by LC-MS, and their Michael adducts were observed around 9 min. c, ESI mass spectra of the Michael adducts between Aβ42 and compound 21. d, Deconvolution Mass spectrum of a Michael adduct observed at 8.944 min. […]

Sequence of Aβ42 (P05067 672-713): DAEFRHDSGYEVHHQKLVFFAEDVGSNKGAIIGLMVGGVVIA

Row | Structure (SMILES) | effect on sphere formation (MCF-7 cells) | MFE (%) ave (MCF-7 cells) [%] | MFE (control = 1) ave (MCF-7 cells) | MFE (%) (MCF-7 cells) | population of ALDH-positive cells [1] | ALDH-positive cells ave (fold) [1] [fold] | ALDH-positive cells ave [1] [%] | ALDH-positive cells (%) [1] | other results
1 | C=C1CCC2C(C)(CCC=C(C)C)C(O)CCC2(C)C1Cc1c(OC)oc(CO)c(C)c1=O (stereo not shown) [Compound 12] | clearly inhibited sphere formation; also recorded: strongest effect on sphere formation | 0.21 | 0.24 | 0.18% and 0.21% and 0.23% | reduced the population of ALDH-positive cells | 0.29 | 0.40 | 0.4% and 0.6% and 0.2% | ALDH (+) Cell number (10^4 cells) ave ([1]; MCF-7, 0.1 µM): 0.68 10^4 cells; ALDH (-) Cell number (10^4 cells) ave ([1]; MCF-7, 0.1 µM): 96.66 10^4 cells; ALDH (+) Cell number ave (fold) ([1]; MCF-7, 0.1 µM): 0.42 fold; ALDH (-) Cell number ave (fold) ([1]; MCF-7, 0.1 µM): 0.72 fold; ALDH (+) Cell number (10^4 cells) ([1]; MCF-7, 0.1 µM): 0.81 10^4 cells and 0.72 10^4 cells and 0.50 10^4 cells; ALDH (-) Cell number (10^4 cells) ([1]; MCF-7, 0.1 µM): 89.19 10^4 cells and 102.28 10^4 cells and 98.51 10^4 cells; ALDH (+) Cell number (10^4 cells) ave ([1]; MCF-7, 0.3 µM): 0.09 10^4 cells; ALDH (-) Cell number (10^4 cells) ave ([1]; MCF-7, 0.3 µM): 33.24 10^4 cells; ALDH (+) Cell number ave (fold) ([1]; MCF-7, 0.3 µM): 0.0565 fold; ALDH (-) Cell number ave (fold) ([1]; MCF-7, 0.3 µM): 0.25 fold; ALDH (+) Cell number (10^4 cells) ([1]; MCF-7, 0.3 µM): 0.054 10^4 cells and 0.12 10^4 cells and 0.10 10^4 cells; ALDH (-) Cell number (10^4 cells) ([1]; MCF-7, 0.3 µM): 26.95 10^4 cells and 38.88 10^4 cells and 33.90 10^4 cells; ALDH (+) Cell number (10^4 cells) ave ([1]; MCF-7, 1 µM): 0.09 10^4 cells; ALDH (-) Cell number (10^4 cells) ave ([1]; MCF-7, 1 µM): 23.57 10^4 cells; ALDH (+) Cell number ave (fold) ([1]; MCF-7, 1 µM): 0.06 fold; ALDH (-) Cell number ave (fold) ([1]; MCF-7, 1 µM): 0.18 fold; ALDH (+) Cell number (10^4 cells) ([1]; MCF-7, 1 µM): 0.14 10^4 cells and 0.08 10^4 cells and 0.05 10^4 cells; ALDH (-) Cell number (10^4 cells) ([1]; MCF-7, 1 µM): 23.86 10^4 cells and 20.92 10^4 cells and 25.95 10^4 cells; cytotoxicity against ALDH-positive cells ([1]; MCF-7, lower concentrations): selective and potent cytotoxicity against ALDH-positive cells
2 | C=C1CCC2C(C)(CCC=C(C)C)C(O)CCC2(C)C1Cc1c(OC)oc(CO)c(C)c1=O (stereo not shown) [Compound 16] | did not affect sphere formation | 0.87 | 1.00 | 0.62% and 1.01% and 0.96% | – | – | – | – | –
3 | C=C1CCC2C(C)(CCC=C(C)C)C(O)CCC2(C)C1Cc1c(OC)oc(C)c(C)c1=O (stereo not shown) [Compound 11] | clearly inhibited sphere formation | 0.46 | 0.53 | 0.47% and 0.44% | reduced the population of ALDH-positive cells | 0.40 | 0.57 | 0.4% and 0.9% | –
4 | C=C1CC[C@H]2[C@]3(C)C[C@@H](C=C(C)C)O[C@H]3CC[C@]2(C)[C@@H]1Cc1c(OC)oc(CO)c(C)c1=O [Compound 17] | – | 0.65 | 0.75 | 0.66% and 0.68% and 0.60% | – | – | – | – | –
5 | C=C1CC[C@@H]2[C@](C)(CC[C@H]3O[C@H](C=C(C)C)C[C@@]23C)[C@@H]1Cc1c(OC)oc(CO)c(C(=O)OC)c1=O [Compound 21] | – | – | – | – | – | – | – | – | Aβ42 adduct formation (Aβ42): adducts were detected
6 | C=C1CC[C@H]2[C@]3(C)C[C@@H](C=C(C)C)O[C@H]3CC[C@]2(C)[C@@H]1Cc1c(O)c(C)c(C)oc1=O [Compound 5, subglutinol A] | – | 1.13 | 1.30 | 1.04% and 1.24% and 1.10% | – | – | – | – | –
